Experimental data: patent US10988465B2, “CXCR4 inhibitors and uses thereof” (X4 Pharmaceuticals, Inc., priority 2016, dated 2021)
pIC50: −log10 of the molar value.

Experiments:
[1] = target: T1, Jurkat cells expressing CXCR4 (Homo sapiens, UniProt P61073); test: Chemokine (CXCL12-AF647) binding inhibition assay; details: CXCL12-AF647 25 ng/mL, read-out: IC50 CXCL-12 binding Jurkat
T1 construct: endogenous in cells; host or cells: Jurkat
Procedure, shortened: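 Cells in HBSS, 20 mM HEPES, 0.2% BSA, pH 7.4, preincubated 15 min at room temperature with compound, then 25 ng/mL CXCL12-AF647 for 30 min. After washing and paraformaldehyde fixation, bound ligand read by flow cytometry; percent inhibition calculated from MFI relative to unlabeled and ligand-only controls.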

in vitro = details: human, Caco-2, pH 7.4
Procedure, shortened: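 Caco-2 monolayers, checked by TEER with Lucifer yellow as marker, were dosed with 10 μM compound in HBSS pH 7.4 in A-to-B and B-to-A directions. Incubation was 90 min at 37° C, in duplicate. Samples were quantified by LC-MS/MS and Papp calculated.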

[2] = target: T2, CXCR-4 transfected U87 cell line (U87.CXCR4) (Homo sapiens, UniProt P61073); test: Intracellular CXCL-12-induced calcium mobilization assay (FLIPR); type: cell-based; details: U87.CXCR4 cells; CXCL-12 25-50 ng/mL; compound added 15 min before; read-out: IC50 CXCL-12 Ca^2+ flux U87.CXCR4+
T2 construct: expressed in transfected cells; host or cells: U87 (U87.CXCR4)
Procedure, shortened: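 U87 cells stably expressing human CXCR4, loaded with Fluo-2 AM (4 μM final) for 45 min at 37 °C in HBSS/20 mM HEPES/0.2% BSA, pH 7.4. Calcium flux triggered by CXCL-12 (25-50 ng/mL) was followed by FLIPR fluorescence over time at 37 °C.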

T2 sequence (P61073 whole entry): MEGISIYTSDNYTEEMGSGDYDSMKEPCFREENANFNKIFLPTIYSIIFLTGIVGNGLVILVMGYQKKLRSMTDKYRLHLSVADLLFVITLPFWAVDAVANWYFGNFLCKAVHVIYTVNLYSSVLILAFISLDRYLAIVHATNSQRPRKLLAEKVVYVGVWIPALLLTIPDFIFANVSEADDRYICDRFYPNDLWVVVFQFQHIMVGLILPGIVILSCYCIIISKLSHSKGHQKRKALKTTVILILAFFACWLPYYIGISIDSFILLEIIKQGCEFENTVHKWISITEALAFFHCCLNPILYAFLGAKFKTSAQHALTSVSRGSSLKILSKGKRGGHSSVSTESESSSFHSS
T1 sequence (P61073 whole entry): as above

SMILES: CCN1CCN(c2cccc3nc([C@H]4CCC[C@@H](c5ncccc5Cl)N4)[nH]c23)CC1 [I-149]
- pIC50 [1]: 7.00 to 11.00
- Papp A→B at 90 min, 10 μM (in vitro): 10 to 30 ×10⁻⁶ cm/s
- Papp B→A at 90 min, 10 μM (in vitro): 10 to 30 ×10⁻⁶ cm/s
- efflux ratio at 90 min, 10 μM (in vitro): 0.1 to 10
- pIC50 [2]: 7.00 to 11.00

SMILES: Cc1cccnc1[C@@H]1CCC[C@H](c2nc3ccccc3n2CC2CCN(CC(F)(F)F)CC2)N1C [I-24, 2-((2R,6S)-1-methyl-6-(3-methylpyridin-2-yl)piperidin-2-yl)-1-((1-(2,2,2-trifluoroethyl)piperidin-4-yl)methyl)-1H-benzo[d]imidazole]
- pIC50 [1]: 6.00 to 7.00
- Papp A→B at 90 min, 10 μM (in vitro): 10 to 30 ×10⁻⁶ cm/s
- Papp B→A at 90 min, 10 μM (in vitro): 10 to 30 ×10⁻⁶ cm/s
- efflux ratio at 90 min, 10 μM (in vitro): 0.1 to 10
- pIC50 [2]: ≤ 6.00

SMILES: Cc1cccnc1[C@@H]1CCC[C@H](c2nccn2C2CCNCC2)N1C [I-179]
- pIC50 [1]: 7.00 to 11.00
- Papp A→B at 90 min, 10 μM (in vitro): 0.1 to 10 ×10⁻⁶ cm/s
- Papp B→A at 90 min, 10 μM (in vitro): 10 to 30 ×10⁻⁶ cm/s
- efflux ratio at 90 min, 10 μM (in vitro): 10 to 30
- pIC50 [2]: 6.00 to 7.00

SMILES: Cc1cccnc1[C@@H]1CCC[C@H](c2nc3cccc(N4CCN(C)CC4)c3n2C)N1 [I-123]
- pIC50 [1]: 7.00 to 11.00
- Papp A→B at 90 min, 10 μM (in vitro): 0.1 to 10 ×10⁻⁶ cm/s
- Papp B→A at 90 min, 10 μM (in vitro): 10 to 30 ×10⁻⁶ cm/s
- efflux ratio at 90 min, 10 μM (in vitro): 0.1 to 10
- pIC50 [2]: 7.00 to 11.00

SMILES: Cc1cccnc1[C@@H]1CCC[C@H](c2nc3ccccc3n2CCCCN2CCN(C)CC2)N1C [I-40]
- pIC50 [1]: 6.00 to 7.00
- Papp A→B at 90 min, 10 μM (in vitro): 0.1 to 10 ×10⁻⁶ cm/s
- Papp B→A at 90 min, 10 μM (in vitro): 10 to 30 ×10⁻⁶ cm/s
- efflux ratio at 90 min, 10 μM (in vitro): 0.1 to 10
- pIC50 [2]: ≤ 6.00

SMILES: CC(C)c1cccnc1[C@@H]1CCC[C@H](c2nc3cccc(N4CCN(C)CC4)c3[nH]2)N1C [I-49]
- pIC50 [1]: 7.00 to 11.00
- Papp A→B at 90 min, 10 μM (in vitro): 10 to 30 ×10⁻⁶ cm/s
- Papp B→A at 90 min, 10 μM (in vitro): 0.1 to 10 ×10⁻⁶ cm/s
- efflux ratio at 90 min, 10 μM (in vitro): 0.1 to 10
- pIC50 [2]: 6.00 to 7.00

SMILES: Cc1cccnc1[C@@H]1CCC[C@H](c2nc3ccccc3[nH]2)N1CCCCN [I-1, 4-((2R,6S)-2-(1H-benzo[d]imidazol-2-yl)-6-(3-methylpyridin-2-yl)piperidin-1-yl)butan-1-amine]
- pIC50 [1]: 7.00 to 11.00
- Papp A→B at 90 min, 10 μM (in vitro): 0.1 to 10 ×10⁻⁶ cm/s
- Papp B→A at 90 min, 10 μM (in vitro): 0.1 to 10 ×10⁻⁶ cm/s
- efflux ratio at 90 min, 10 μM (in vitro): 10 to 30
- pIC50 [2]: 6.00 to 7.00

SMILES: Cc1cccnc1[C@@H]1CCC[C@H](c2nc3cccc(N4CCNC5(CC5)C4)c3[nH]2)N1C [I-129]
- pIC50 [1]: 7.00 to 11.00
- Papp A→B at 90 min, 10 μM (in vitro): 10 to 30 ×10⁻⁶ cm/s
- Papp B→A at 90 min, 10 μM (in vitro): 10 to 30 ×10⁻⁶ cm/s
- efflux ratio at 90 min, 10 μM (in vitro): 0.1 to 10
- pIC50 [2]: 6.00 to 7.00

SMILES: Cc1cccnc1[C@@H]1CCC[C@H](c2nc3ccccc3n2CCCN2CCC(F)(F)CC2)N1C [I-30, 1-(3-(4,4-difluoropiperidin-1-yl)propyl)-2-((2R,6S)-1-methyl-6-(3-methylpyridin-2-yl)piperidin-2-yl)-1H-benzo[d]imidazole]
- pIC50 [1]: 7.00 to 11.00
- Papp A→B at 90 min, 10 μM (in vitro): 0.1 to 10 ×10⁻⁶ cm/s
- Papp B→A at 90 min, 10 μM (in vitro): 0.1 to 10 ×10⁻⁶ cm/s
- efflux ratio at 90 min, 10 μM (in vitro): 0.1 to 10
- pIC50 [2]: 7.00 to 11.00

SMILES: Cc1cccnc1[C@@H]1CCC[C@H](c2nc3cccc(N4C[C@@H](C)N(C)[C@@H](C)C4)c3[nH]2)N1C [I-54]
- pIC50 [1]: 7.00 to 11.00
- Papp A→B at 90 min, 10 μM (in vitro): 10 to 30 ×10⁻⁶ cm/s
- Papp B→A at 90 min, 10 μM (in vitro): 10 to 30 ×10⁻⁶ cm/s
- efflux ratio at 90 min, 10 μM (in vitro): 0.1 to 10
- pIC50 [2]: 7.00 to 11.00

SMILES: Cc1nccnc1[C@@H]1CCC[C@H](c2nc3cccc(N4CCN(C)CC4)c3[nH]2)N1C [I-105]
- pIC50 [1]: 6.00 to 7.00
- Papp A→B at 90 min, 10 μM (in vitro): 0.1 to 10 ×10⁻⁶ cm/s
- Papp B→A at 90 min, 10 μM (in vitro): 10 to 30 ×10⁻⁶ cm/s
- efflux ratio at 90 min, 10 μM (in vitro): 0.1 to 10
- pIC50 [2]: ≤ 6.00

SMILES: Cc1cccnc1[C@@H]1CCC[C@H](c2nc3ccccc3n2CCCN2CCOCC2)N1C [I-18, 4-(3-(2-((2R,6S)-1-methyl-6-(3-methylpyridin-2-yl)piperidin-2-yl)-1H-benzo[d]imidazol-1-yl)-propyl)morpholine]
- pIC50 [1]: 7.00 to 11.00
- Papp A→B at 90 min, 10 μM (in vitro): 10 to 30 ×10⁻⁶ cm/s
- Papp B→A at 90 min, 10 μM (in vitro): 10 to 30 ×10⁻⁶ cm/s
- efflux ratio at 90 min, 10 μM (in vitro): 0.1 to 10
- pIC50 [2]: 7.00 to 11.00

SMILES: Cc1cc(F)cnc1[C@@H]1CCC[C@H](c2nc3cccc(N4CCN(C)CC4)c3[nH]2)N1 [I-142]
- pIC50 [1]: 7.00 to 11.00
- Papp A→B at 90 min, 10 μM (in vitro): 0.1 to 10 ×10⁻⁶ cm/s
- Papp B→A at 90 min, 10 μM (in vitro): 10 to 30 ×10⁻⁶ cm/s
- efflux ratio at 90 min, 10 μM (in vitro): 0.1 to 10
- pIC50 [2]: 7.00 to 11.00

SMILES: Cc1cccnc1[C@@H]1CCC[C@H](c2nc3ccccc3n2C2CCN(C)CC2)N1 [I-131]
- pIC50 [1]: 7.00 to 11.00
- Papp A→B at 90 min, 10 μM (in vitro): 0.1 to 10 ×10⁻⁶ cm/s
- Papp B→A at 90 min, 10 μM (in vitro): 10 to 30 ×10⁻⁶ cm/s
- efflux ratio at 90 min, 10 μM (in vitro): 0.1 to 10
- pIC50 [2]: 6.00 to 7.00

SMILES: CN1CCN(c2cccc3nc([C@H]4CCC[C@@H](c5ncccc5C#N)N4C)[nH]c23)CC1 [I-10, 2-((2S,6R)-1-methyl-6-(7-(4-methylpiperazin-1-yl)-1H-benzo[d]imidazol-2-yl)piperidin-2-yl)nicotinonitrile]
- pIC50 [1]: 6.00 to 7.00
- Papp A→B at 90 min, 10 μM (in vitro): 10 to 30 ×10⁻⁶ cm/s
- Papp B→A at 90 min, 10 μM (in vitro): 10 to 30 ×10⁻⁶ cm/s
- efflux ratio at 90 min, 10 μM (in vitro): 0.1 to 10
- pIC50 [2]: ≤ 6.00

SMILES: Cc1cccnc1[C@@H]1CCC[C@H](c2nc3cccc(N4CCN(C)C(C)(C)C4)c3[nH]2)N1C [I-55]
- pIC50 [1]: 7.00 to 11.00
- Papp A→B at 90 min, 10 μM (in vitro): 10 to 30 ×10⁻⁶ cm/s
- Papp B→A at 90 min, 10 μM (in vitro): 10 to 30 ×10⁻⁶ cm/s
- efflux ratio at 90 min, 10 μM (in vitro): 0.1 to 10
- pIC50 [2]: 7.00 to 11.00
